Measurements taken from patent publication US20110028719A1, “SCREENING METHODS FOR AMYLOID BETA MODULATORS” (priority 2006, published 2011).
Like-named read-outs stand apart in the source and are kept apart here.

Target: immobilized Aβ fibrils (Homo sapiens, UniProt P05067)
Assay: FAC-MS assay of free Aβ monomer (indicator) binding to immobilized Aβ fibrils in the presence of test compounds
Details: for % of Shift: FAC-MS % shift of breakthrough time of free Aβ1-42 monomer (1 μM) on immobilized Aβ fibrils, compounds 1-10 μM in 20 mM NH4OAc, 1% DMSO, void marker M3
[1] = FAC-MS screen, shift of free Aβ monomer breakthrough on immobilized Aβ fibrils in presence of compound, scale not given

Sequence of immobilized Aβ fibrils (P05067 672-713 limits assumed): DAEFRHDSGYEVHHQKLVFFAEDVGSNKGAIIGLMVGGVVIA

SMILES | Aβ Shift [1] | further results
CC12CC3CC(C)(C1)CC(CN)(C3)C2 | 2 | –
CC(C)C(=O)O[C@H]1[C@H](OC(=O)C(C)C)[C@@H](OC(=O)C(C)C)[C@H](OC(=O)C(C)C)[C@@H](OC(=O)C(C)C)[C@H]1OC(=O)C(C)C | 5 | –
CC1CC(NC(=O)c2nc[nH]n2)CC(C)(C)C1 (stereo not drawn) | 1 | –
O[C@H]1[C@H](O)[C@@H](O)[C@H](O)[C@@H](O)[C@@H]1O [AZD-103, scyllo-inositol, reference compound] | – | % of Shift: 84%; effect of pretreatment of immobilized Aβ aggregates (pretreatment of column with 1 to 10 μM, FIG. 5): prevents binding and/or breaks down of Aβ fibrils
CC1CCCC(NC(=O)c2cc3c(s2)CSC3)C1C (stereo not drawn) | 1 | –
CC1CC2(C)CC(C)C1(CO)CO2 (stereo not drawn) | 1 | –
CC12CC3(C)CC(C)(C1)CC(C(=O)O)(C2)C3 | 2 | –
CC1CCC(C(C)C)C(OC(=O)CCc2ccccc2)C1 (stereo not drawn) | 1 | –
CCCCCCCCC(=O)NC1CC(C)CC(C)(C)C1 (stereo not drawn) | 0 | –
CC1CCC(C(C)C)C(OCC(O)CNC(C)C)C1 (stereo not drawn) | 1 | –
CC(O)C12C3C4C5C1C2C(Br)(C43)C51OCCO1 (stereo not drawn) | 0 | –
CC1CCC(C(C)C)C(OCC(O)CN2CCOCC2)C1 (stereo not drawn) | 1 | –
CC12CC3CC(O)(C1)CC(C(=O)O)(C3)C2 (stereo not drawn) | 1 | –
CC12CC3CC(C)(C1)CC(C(=O)Nc1nccs1)(C3)C2 | 1 | –
CC1CCCC(N2CNC(=S)NC2)C1C (stereo not drawn) | 2 | –
CC12CC3CC(C)(C1)CC(N)(C3)C2 | 2 | –
CC1CC(NC(=O)c2cccs2)CC(C)(C)C1 (stereo not drawn) | 0 | –
CC(=O)O[C@@H]1[C@@H](OC(=O)C(C)(C)C)[C@H](OC(=O)C(C)(C)C)[C@H](OC(C)=O)[C@H](OC(=O)C(C)(C)C)[C@H]1OC(=O)C(C)(C)C | 4 | –
CC1(C)CC(=O)C2=C(C1)CC1(C)CC(C)(C)CC2(O)C1 (stereo not drawn) | 0 | –
CCC(=O)OC1C(OC(=O)CC)C(OC(=O)CC)C(OC(=O)CC)C(OC(=O)CC)C1OC(=O)CC (stereo not drawn) [Compound 37387006, 2,3,4,5,6-pentakis(propionyloxy)cyclohexyl propionate] | – | % of Shift: 4%
CC(=O)NC12CC3(C)CC(C)(CC(C)(C3)C1)C2 | 0 | –
CC1CCCC(NC(=O)NC2CCCCC2)C1C (stereo not drawn) | 0 | –
O=C(O)C1C2C(=O)OC3C(Cl)C1C1(CC1)C32 (stereo not drawn) | 0 | –
COCCNC(=O)NC12CC3(C)CC(C)(CC(C)(C3)C1)C2 | 1 | –
CCC12CC3CC(O)(CC(O)(C3)C1)C2 | 1 | –
CCN(CC)CC12CC3CC(C)(CC(C)(C3)C1)C2 | 2 | –

SMILES | Aβ Shift [1] | further results
CC(=O)NC1CC(Cl)CCC1C (stereo not drawn) | 1 | –
CC(=O)NC12CC3CC(C)(C1)CC(NC(C)=O)(C3)C2 | 1 | –
CC1CCC(O[C@H]2C=CC(=O)O2)C(C(C)C)C1 (stereo partly drawn) | 0 | –
CC(C)CC(=O)OC1C(O)C(OC(=O)CC(C)C)C(OC(=O)CC(C)C)C(OC(=O)CC(C)C)C1OC(=O)CC(C)C (stereo not drawn) [Compound 37387009, 2-hydroxy-3-4,5,6-tetrakis[(3-methylbutanoyl)oxo]cyclohexyl 3-methylbutanoate] | – | % of Shift: 2%
C=CC1CCC(O)C(N(C)C(=S)Nc2ccccc2)C1 (stereo not drawn) | 1 | –
CC1CCCC(NC(=O)C2CCCCC2C(=O)O)C1C (stereo not drawn) | 0 | –
CC1CCCC(NC(=O)c2ccccc2C(=O)O)C1C (stereo not drawn) | 2 | –
Cc1cc(NC(=O)C23CC4CC(C)(CC(C)(C4)C2)C3)no1 | 1 | –
O=S(=O)(c1ccccc1)C1C2CC3C(C2Cl)C31 (stereo not drawn) | 0 | –
CC1(C(=O)O)CC(C)(C(=O)O)CC(C)(C(=O)O)C1 (stereo not drawn) | 1 | –
CC1CCCC(NC(=O)Cn2cc3c(n2)CCCC3)C1C (stereo not drawn) | 1 | –
O=C(OC1C(O)C(OC(=O)c2ccccc2)C(OC(=O)c2ccccc2)C(OC(=O)c2ccccc2)C1OC(=O)c1ccccc1)c1ccccc1 (stereo not drawn) [Compound 37387010, 2,3,5,6-tatrakis(benzoyloxy)-4-hydroxycyclohexyl benzoate] | – | % of Shift: 2%
CC(C)(C)C1CC(C(=O)O)CC(C(=O)O)C1 (stereo not drawn) | 0 | –
CC(C)C1CCC(C)C(OC(=O)C2C3CCCCC32)C1 (stereo not drawn) | 1 | –
CC1CC(NC(=O)C2CCC2)CC(C)(C)C1 (stereo not drawn) | 0 | –
CC12CC3(C)CC(C(=O)O)(C1)CC(C(=O)O)(C2)C3 | 1 | –
COC(=O)C12CC3CC(C)(CC(C)(C3)C1)C2 | 1 | –
CC1CC(OC(=O)/C=C/c2ccccc2)CC(C(C)C)C1 (stereo not drawn) | 0 | –
CC1CCN(CC(=O)OC2CC(C)CCC2C(C)C)CC1 (stereo not drawn) | 1 | –
CC(NC(=O)C12CC3(C)CC(C)(CC(C)(C3)C1)C2)C(=O)O (stereo not drawn) | 2 | –
O[C@H]1[C@H](O)[C@@H](O)[C@@H]2O[C@@H]2[C@@H]1O [Compound C5424, Conduritol B epoxide, reference compound] | – | % of Shift: 1%
COC(=O)C12CCC(C)(C(O)C1)C2(C)C (stereo not drawn) | 1 | –
CCC1CC2(C(=O)NCc3ccco3)CC3(C)CC3(C1)C2 (stereo not drawn) | 1 | –
O=C(O)C1CC(C(=O)O)C(C(=O)O)CC1C(=O)O (stereo not drawn) | 1 | –
CO[C@H]1[C@H](O)[C@@H](O)[C@@H](O)[C@H](O)[C@@H]1O [D-Pinitol, D-pinitol, reference compound] | – | % of Shift: 3%
CC1CCC(C(C)C)C(OC(=O)c2ccccc2N)C1 (stereo not drawn) | – | Aβ Shift: 1

SMILES | Aβ Shift [1] | further results
CC1CCC(C(C)C)C(OC(=O)NN)C1 (stereo not drawn) | 1 | –
CC12CC3CC(C)(C1)CC(C(Cl)C(=O)O)(C3)C2 (stereo not drawn) | 1 | –
Cl.NC1C2CC3C1C3C2Cl (stereo not drawn) | 1 | –
O[C@H]1[C@H](O)[C@@H](O)[C@H](O)[C@@H](O)[C@H]1O [Myo, myo-inositol, reference compound] | – | % of Shift: 34%
CC1(C)CC2(C)CC(O)(C1)C13CCC(C)(C)CC1(C2)O3 (stereo not drawn) | 0 | –
CCCC1CCC(c2ccc(C(C)=O)cc2)CC1C (stereo not drawn) | 1 | –
CC12CC3CC(CO)(C1)CC(c1ccccc1)(C3)C2 (stereo not drawn) | 1 | –
CC1CC(NN(C)C)C(C#N)(C#N)C(C)C1(C#N)C#N (stereo not drawn) | 2 | –
CC1CCCC(NC(=O)c2cc3sccc3n2C)C1C (stereo not drawn) | 2 | –
O=C(O)C1(O)CC(O)C(O)C(O)C1 (stereo not drawn) | 1 | –
Cc1cccc(NC(=O)C23CC4CC(C)(CC(C)(C4)C2)C3)c1 | 2 | –
Cc1nn(CC(=O)NC2CCCC(C)C2C)c2ccccc12 (stereo not drawn) | 1 | –
O=C(/C=C/c1ccc(O)c(O)c1)O[C@@H]1C[C@](O)(C(=O)O)C[C@@H](O)[C@H]1O [Compound C-3878, Chlorogenic acid, reference compound] | – | % of Shift: 2%
CC1CCC(C(C)C)C(OC(=O)C[n+]2ccccc2)C1 (stereo not drawn) | 1 | –
CC12CC3(C)CC(C)(C1)CC(C(=O)NC(C)(C)CO)(C2)C3 | 1 | –
BrC1CC2OC2CC1Br (stereo not drawn) | 0 | –
CC12CC3CC(C)(C1)CC(C(N)=O)(C3)C2 | 1 | –
CC12CC3CC(C)(C1)CC(CC(=O)NNC(N)=O)(C3)C2 | 2 | –
C=CCNC(=O)C12CC3(C)CC(C)(CC(C)(C3)C1)C2 | 1 | –
NC12C3C4C5C1C2C(Br)(C43)C51OCCO1 (stereo not drawn) | 0 | –
COc1cccc(OC)c1C(=O)OC1CC(C)CC(C)C1 (stereo not drawn) | 0 | –
CC(C)(C)C1CC(C(=O)O)CC(C(C)(C)C)C1 (stereo not drawn) | 1 | –
CC1CCCC(N/C=C2\C(=O)Nc3ccccc32)C1C (stereo not drawn) | 2 | –
CC12CC3(C)CC(C)(C1)CC(C(=O)NC(C)(C)C)(C2)C3 | 2 | –
CC1CCCC(n2c(=S)[nH]c3ccccc3c2=O)C1C (stereo not drawn) | 1 | –
CC1CCC(C(C)C)C(OCCC[N+](C)(C)C)C1 (stereo not drawn) | 2 | –

SMILES | Aβ Shift [1] | further results
CC(C)C(=O)O[C@@H]1[C@@H](OC(=O)C(C)C)[C@H](OC(=O)C(C)C)[C@H](O)[C@H](OC(=O)C(C)C)[C@H]1OC(=O)C(C)C | 4 | –
CC1CCCC(N2CNc3nc4ccccc4n3C2)C1C (stereo not drawn) | 2 | –
CC(C)(C)C(=O)OC1C(O)C(OC(=O)C(C)(C)C)C(OC(=O)C(C)(C)C)C(OC(=O)C(C)(C)C)C1OC(=O)C(C)(C)C (stereo not drawn) [Compound 37387002, 2,3,4,5-tetrakis[(2,2-dimethylpropanoyl)oxy]-6-hydroxycyclohexyl pivalate] | – | % of Shift: 5%
CCN1CCC(NC2CCCC(C)C2C)CC1 (stereo not drawn) | 1 | –
CC12CC3CC(O)(C1)CC(O)(C3)C2 | 1 | –
CC1CCC(C(C)C)C(OC(=O)NC(=O)C(F)(F)F)C1 (stereo not drawn) | 2 | –
COc1cccc(C(=O)OC2CC(C)CC(C)C2)c1 (stereo not drawn) | 0 | –
Cc1cc(C(=O)NC2CCCC(C)C2C)c2ccccc2n1 (stereo not drawn) | 1 | –
CC12CC3CC(C)(C1)CC(C(=O)CCC(=O)O)(C3)C2 | 1 | –
CC12CC3CC(C)(C1)CC(CN1CCOCC1)(C3)C2 | 1 | –
CC12CC3(C)CC(C)(C1)CC(CC(=O)O)(C2)C3 | 1 | –
CC1CCC(C(C)C)C(OC(=O)c2ccco2)C1 (stereo not drawn) | 2 | –
CC12CC3(C)CC(N)(C1)CC(C(=O)O)(C2)C3 | 2 | –
CC(C)=CCCC12CCC(CO)(CO1)C(C)C2 (stereo not drawn) | 1 | –
Oc1c(I)cc(Cl)c2cccnc12 | – | Aβ Shift (FAC-MS % shift of free Aβ monomer breakthrough on immobilized Aβ fibrils in presence of the compound (screen, Table 2)): 2
CC1CC(NC(=O)C2(C)CC2(Cl)Cl)CC(C)(C)C1 (stereo not drawn) | 0 | –
CC12CC3(C)CC(C)(C1)CC(C(N)=O)(C2)C3 | 1 | –
CC(C)(C)C(=O)OC1C(OC(=O)C(C)(C)C)C(OC(=O)C(C)(C)C)C(OC(=O)C(C)(C)C)C(OC(=O)C(C)(C)C)C1OC(=O)C(C)(C)C (stereo not drawn) [Compound 37387008, 2,3,4,5,6-pentakis[(2,2-dimethylpropanoyl)oxy]cyclohexyl pivalate] | – | % of Shift: 4%
COC(=O)[C@@H]1C[C@H](O)C[C@H](C(=O)OC)C1 | 1 | –
CC1CCCC(NS(=O)(=O)c2cccs2)C1C (stereo not drawn) | 1 | –
O=P(O)(O)O[C@H]1[C@H](OP(=O)(O)O)[C@@H](OP(=O)(O)O)[C@H](OP(=O)(O)O)[C@@H](OP(=O)(O)O)[C@H]1OP(=O)(O)O [Compound P-3168, Phytic acid, reference compound] | – | % of Shift: 2%
CC12CC3CC(C)(C1)CC(O)(C3)C2 | 0 | –
CCC(=O)OC1CCC(C)CC1C(C)(C)C(C)C (stereo not drawn) | 1 | –
